Test results taken from patent US9675595B2, “Synergistic combinations of PI3K- and MEK-inhibitors” (Novartis AG, priority 2011, dated 2017).
Read-outs that look alike come from different tables or passages of the source.

Columns and labels:
Type in all cases: cell-based
CW-2 = test: Cell viability (CellTiterGlo, 72 h), Example 1; settings: Homo sapiens, single agent
From the text: (§1) The colorectal cancer cell lines SW1417, COLO 205, LS411N, HT-29, RKO, OUMS-23, SW620, LoVo, SW480, SW837, COLO-678, LS123-NCI—H747, HCT-15, HCT116, DLD-1, T84, SW948, LS180, GP2d, HuTu 80, CW-2, SW48, NCI—H716, C2Bbe1, SNU—C1 and KM12 are obtained from the American Type Culture Collection (ATCC) and maintained in their respective culture medium as specified by the provider. These colorectal cancer cell lines have the following mutation status:
(§2) For assessment of combination effects, cells are seeded into 384-well plates at 500 cells/well and incubated overnight. The contents of the compound master plates are pre-diluted with 1:200 (1 μL compound solution to 200 μL cell […] culture medium containing 10% fetal clf serum) before transferring 5 μL of this pre-dilution to the cell plates containing 20 μL cell culture medium, to achieve the targeted final compound concentrations as well as a vehicle (DMSO) concentration of 0.09%.
(§3) Effects of single agents as well as their checkerboard combinations on cell viability are assessed after 72 hours of incubation at 37° C./5% CO2 by quantification of cellular ATP levels (CellTiterGlo, Promega) using 25 μL reagent/well and n=2 repliate plates per condition. The number/viability of cells at the time of compound addition was likewise assessed and used to estimate the population doubling time of the particular cell line. Single agent IC50s are calculated using standard four-parametric curve fitting (SLFit, model 205). Potential synergistic interactions between compound combinations are assessed using the Excess Inhibition 2D matrix according to the Loewe additivity model and are reported as Synergy Score. In addition, compound combinations are assessed by combination index analysis derived from isobologram graphs at 50% inhibition, and are reported as best combination index (CI), which corresponds to the lowest value on the isobologram. All synergy calculations are performed using CHALICE software (Lehár et al, Nat Biotechnol. (July 2009), 27(4): 69:66).

T84 = test: Cell viability (CellTiterGlo, 72 h), Example 1; settings: Homo sapiens, duplicate data points and dose response display some scatter, single agent
From the text: as §1, §2, §3

KM12 = test: Cell viability (CellTiterGlo, 72 h), Example 1; settings: Homo sapiens, single agent
From the text: as §1, §2, §3

LS123 = test: Cell viability (CellTiterGlo, 72 h), Example 1; settings: Homo sapiens, LS-123, single agent
From the text: as §1, §2, §3

SNU-C1 = test: Cell viability (CellTiterGlo, 72 h), Example 1; settings: Homo sapiens, single agent
From the text: as §1, §2, §3

LoVo = test: Cell viability (CellTiterGlo, 72 h), Example 1; settings: Homo sapiens, single agent
From the text: as §1, §2, §3

NCI-H747 = test: Cell viability (CellTiterGlo, 72 h), Example 1; settings: Homo sapiens, single agent
From the text: as §1, §2, §3

C2BBe1 = test: Cell viability (CellTiterGlo, 72 h), Example 1; settings: Homo sapiens, single agent
From the text: as §1, §2, §3

COLO-678 = test: Cell viability (CellTiterGlo, 72 h), Example 1; settings: Homo sapiens, single agent
From the text: as §1, §2, §3

OUMS-23 = test: Cell viability (CellTiterGlo, 72 h), Example 1; settings: single agent
From the text: as §1, §2, §3

HCT-15 = test: Cell viability (CellTiterGlo, 72 h), Example 1; settings: Homo sapiens, single agent
From the text: as §1, §2, §3

NCI-H716 = test: Cell viability (CellTiterGlo, 72 h), Example 1; settings: Homo sapiens, single agent
From the text: as §1, §2, §3

COLO205 = test: Cell viability (CellTiterGlo, 72 h), Example 1; settings: Homo sapiens, COLO 205, single agent
From the text: as §1, §2, §3

SW620 = test: Cell viability (CellTiterGlo, 72 h), Example 1; settings: Homo sapiens, SW-620, single agent
From the text: as §1, §2, §3

LS411N = test: Cell viability (CellTiterGlo, 72 h), Example 1; settings: Homo sapiens, LS-411N, single agent
From the text: as §1, §2, §3

HCT 116 = test: Cell viability (CellTiterGlo, 72 h), Example 1; settings: Homo sapiens, HCT-116, 72 h
From the text: as §1, §2, §3

SW837 = test: Cell viability (CellTiterGlo, 72 h), Example 1; settings: Homo sapiens, single agent
From the text: as §1, §2, §3

SW1417 = test: Cell viability (CellTiterGlo, 72 h), Example 1; settings: Homo sapiens, single agent
From the text: as §1, §2, §3

GP2d = test: Cell viability (CellTiterGlo, 72 h), Example 1; settings: single agent
From the text: as §1, §2, §3

HuTu 80 = test: Cell viability (CellTiterGlo, 72 h), Example 1; settings: Homo sapiens, HuTu80, single agent
From the text: as §1, §2, §3

RKO = test: Cell viability (CellTiterGlo, 72 h), Example 1; settings: Homo sapiens, single agent
From the text: as §1, §2, §3

SW48 = test: Cell viability (CellTiterGlo, 72 h), Example 1; settings: Homo sapiens, single agent
From the text: as §1, §2, §3

SW480 = test: Cell viability (CellTiterGlo, 72 h), Example 1; settings: Homo sapiens, single agent
From the text: as §1, §2, §3

DLD-1 = test: Cell viability (CellTiterGlo, 72 h), Example 1; settings: Homo sapiens, single agent
From the text: as §1, §2, §3

LS 180 = test: Cell viability (CellTiterGlo, 72 h), Example 1; settings: Homo sapiens, LS180, single agent
From the text: as §1, §2, §3

[1] = system: colorectal cancer cell lines; test: Cell viability (CellTiterGlo, 72 h), Example 1, whole panel; settings: repeat experiments (*) excluded
From the text: as §1, §2
as §3, with “[…]). Interpretation of values for combination index and synergy score are provided below:” for “69:66).”
Pairwise multiple comparisons of the result groups are performed by one-way ANOVA (Neuman-Keuls method) using GraphPad Prism 5 (GraphPad Software Inc.). Results

Structure (SMILES): Cn1cnc2c(F)c(Nc3ccc(Br)cc3F)c(C(=O)NOCCO)cc21 [COMPOUND B, 6-(4-bromo-2-fluorophenylamino)-7-fluoro-3-methyl-3H-benzoimidazole-5-carboxylic acid (2-hydroxyethoxy)-amide]
- IC50 (CW-2; read-out: Cmpd. B IC50): > 2700 nM
- IC50 (T84; read-out: Cmpd. B IC50): 12800 nM
- IC50 (KM12; read-out: Cmpd. B IC50): 339 nM
- IC50 (LS123; read-out: Cmpd. B IC50): 2280 nM
- IC50 (SNU-C1; read-out: Cmpd. B IC50): 15.1 nM
- IC50 (LoVo; read-out: Cmpd. B IC50): 148 nM
- IC50 (NCI-H747; read-out: Cmpd. B IC50): 153 nM
- IC50 (C2BBe1; read-out: Cmpd. B IC50): 1580 nM
- IC50 (COLO-678; read-out: Cmpd. B IC50): 1710 nM
- IC50 (OUMS-23; read-out: Cmpd. B IC50): > 2700 nM
- IC50 (HCT-15; read-out: Cmpd. B IC50): > 2700 nM
- IC50 (NCI-H716; read-out: Cmpd. B IC50): > 2700 nM
- IC50 (COLO205; read-out: Cmpd. B IC50): 34.4 nM
- IC50 (SW620; read-out: Cmpd. B IC50): 26.9 nM
- IC50 (LS411N; read-out: Cmpd. B IC50): 54.7 nM
- IC50 (HCT 116; HCT 116*, repeat experiment performed at end of study, single agent, read-out: Cmpd. B IC50): 735 nM
- IC50 (HCT 116; HCT 116, single agent, read-out: Cmpd. B IC50): 881 nM
- IC50 (SW837; read-out: Cmpd. B IC50): 557 nM
- IC50 (SW1417; read-out: Cmpd. B IC50): 53.9 nM
- IC50 (GP2d; read-out: Cmpd. B IC50): 756 nM
- IC50 (HuTu 80; read-out: Cmpd. B IC50): > 2700 nM
- IC50 (RKO; read-out: Cmpd. B IC50): > 2700 nM
- IC50 (SW48; read-out: Cmpd. B IC50): 78.4 nM
- IC50 (SW480; read-out: Cmpd. B IC50): 2030 nM
- IC50 (DLD-1; read-out: Cmpd. B IC50): > 2700 nM
- IC50 (LS 180; read-out: Cmpd. B IC50): 143 nM
- IC50 ([1]; Mean over colorectal cell lines, read-out: Mean Cmpd. B IC50): 1160 nM
- IC50 ([1]; Median over colorectal cell lines, read-out: Median Cmpd. B IC50): 76 nM

Structure (SMILES): Cc1nc(NC(=O)N2CCC[C@H]2C(N)=O)sc1-c1ccnc(C(C)(C)C(F)(F)F)c1 [COMPOUND A, (S)-pyrrolidine-1,2-dicarboxylic acid 2-amide 1-({4-methyl-5-[2-(2,2,2-trifluoro-1,1-dimethyl-ethyl)-pyridin-4-yl]-thiazol-2-yl}-amide)]
- IC50 (CW-2; read-out: Cmpd. A IC50): > 10800 nM
- IC50 (T84; read-out: Cmpd. A IC50): 4160 nM
- IC50 (KM12; read-out: Cmpd. A IC50): > 10800 nM
- IC50 (LS123; read-out: Cmpd. A IC50): 7250 nM
- IC50 (SNU-C1; read-out: Cmpd. A IC50): 2430 nM
- IC50 (LoVo; read-out: Cmpd. A IC50): 8660 nM
- IC50 (NCI-H747; read-out: Cmpd. A IC50): 6210 nM
- IC50 (C2BBe1; read-out: Cmpd. A IC50): 9200 nM
- IC50 (COLO-678; read-out: Cmpd. A IC50): > 10800 nM
- IC50 (OUMS-23; read-out: Cmpd. A IC50): > 10800 nM
- IC50 (HCT-15; read-out: Cmpd. A IC50): 6720 nM
- IC50 (NCI-H716; read-out: Cmpd. A IC50): > 10800 nM
- IC50 (COLO205; read-out: Cmpd. A IC50): > 10800 nM
- IC50 (SW620; read-out: Cmpd. A IC50): > 10800 nM
- IC50 (LS411N; read-out: Cmpd. A IC50): 8670 nM
- IC50 (HCT 116; HCT 116*, repeat experiment performed at end of study, single agent, read-out: Cmpd. A IC50): 8320 nM
- IC50 (HCT 116; HCT 116, single agent, read-out: Cmpd. A IC50): 9420 nM
- IC50 (SW837; read-out: Cmpd. A IC50): 7280 nM
- IC50 (SW1417; read-out: Cmpd. A IC50): 7850 nM
- IC50 (GP2d; read-out: Cmpd. A IC50): 698 nM
- IC50 (HuTu 80; read-out: Cmpd. A IC50): 8840 nM
- IC50 (RKO; read-out: Cmpd. A IC50): 6730 nM
- IC50 (SW48; read-out: Cmpd. A IC50): 1410 nM
- IC50 (SW480; read-out: Cmpd. A IC50): 9350 nM
- IC50 (DLD-1; read-out: Cmpd. A IC50): > 10800 nM
- IC50 (LS 180; read-out: Cmpd. A IC50): 5080 nM
- IC50 ([1]; Mean over colorectal cell lines, read-out: Mean Cmpd. A IC50): 7510 nM
- IC50 ([1]; Median over colorectal cell lines, read-out: Median Cmpd. A IC50): 8660 nM
